Literature values, collected in patent publication US11618772B2 (Kineta Chronic Pain, LLC, priority 2014, dated 2023).

Molecular target: T1, α9α10 nAChR (Rattus norvegicus, UniProt P43144+Q9JLB5)
T1 construct: host or cells: oocytes
Settings: cited from earlier work

T1 sequence (P43144 26-479 limits assumed): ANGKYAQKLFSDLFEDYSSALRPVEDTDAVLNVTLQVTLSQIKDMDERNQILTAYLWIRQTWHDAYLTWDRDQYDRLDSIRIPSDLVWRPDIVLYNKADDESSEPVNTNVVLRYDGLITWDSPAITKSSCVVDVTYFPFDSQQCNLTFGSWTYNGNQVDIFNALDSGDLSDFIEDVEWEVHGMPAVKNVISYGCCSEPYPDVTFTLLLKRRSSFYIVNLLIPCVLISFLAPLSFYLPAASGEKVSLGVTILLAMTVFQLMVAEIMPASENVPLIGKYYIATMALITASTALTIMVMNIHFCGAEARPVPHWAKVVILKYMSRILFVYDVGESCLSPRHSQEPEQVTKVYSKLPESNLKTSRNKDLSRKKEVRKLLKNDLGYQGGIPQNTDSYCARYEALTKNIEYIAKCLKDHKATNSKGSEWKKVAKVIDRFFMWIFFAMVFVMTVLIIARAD
T1 sequence (Q9JLB5 25-447 limits assumed): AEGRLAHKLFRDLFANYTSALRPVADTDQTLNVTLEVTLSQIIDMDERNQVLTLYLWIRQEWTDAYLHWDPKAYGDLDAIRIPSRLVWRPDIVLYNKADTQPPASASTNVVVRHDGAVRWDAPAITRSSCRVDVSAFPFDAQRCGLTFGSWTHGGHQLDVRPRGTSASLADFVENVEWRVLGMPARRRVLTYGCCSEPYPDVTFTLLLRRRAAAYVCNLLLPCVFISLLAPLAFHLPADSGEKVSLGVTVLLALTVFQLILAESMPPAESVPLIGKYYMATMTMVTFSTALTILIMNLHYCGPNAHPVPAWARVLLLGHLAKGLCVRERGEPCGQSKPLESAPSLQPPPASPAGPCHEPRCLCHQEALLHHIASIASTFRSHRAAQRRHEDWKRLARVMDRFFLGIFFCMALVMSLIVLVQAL

GCCSDPRCRYRCR [RgIA]
block of α9α10 nAChR: block α9α10 nAChR
